From PubChem BioAssay (NCI)
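Method: 48-hour compound exposure of cells in 96-well plates, five concentrations, linear interpolation of endpoints. GI50: concentration for 50% inhibition of growth. TGI: concentration producing complete growth inhibition.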

What was measured:
Test in all cases: NCI anticancer screen, dose series, 48 h
BT-549 breast = system: BT-549 breast
RXF 393 renal = system: RXF 393 renal
A498 renal = system: A498 renal
HCT-15 colon = system: HCT-15 colon
SNB-19 CNS = system: SNB-19 CNS
SF-539 CNS = system: SF-539 CNS
ACHN renal = system: ACHN renal
PC-3 prostate = system: PC-3 prostate
COLO 205 colon = system: COLO 205 colon
UACC-257 melanoma = system: UACC-257 melanoma

SMILES | TGI (BT-549 breast) [µM] | TGI (RXF 393 renal) [µM] | TGI (A498 renal) [µM] | TGI (HCT-15 colon) [µM] | TGI (SNB-19 CNS) [µM] | TGI (SF-539 CNS) [µM] | TGI (ACHN renal) [µM] | TGI (PC-3 prostate) [µM] | TGI (COLO 205 colon) [µM] | TGI (UACC-257 melanoma) [µM] | GI50 (BT-549 breast) [µM] | GI50 (RXF 393 renal) [µM] | GI50 (A498 renal) [µM] | GI50 (HCT-15 colon) [µM] | GI50 (SNB-19 CNS) [µM] | GI50 (SF-539 CNS) [µM] | GI50 (ACHN renal) [µM] | GI50 (PC-3 prostate) [µM] | GI50 (COLO 205 colon) [µM] | GI50 (UACC-257 melanoma) [µM]
CN(C)CC1CC/C(=C\c2ccc3c(c2)OCO3)C1=O (stereo not given) | 24.9 | 29.1 | 52.1 | 15 | 36 | 31 | 28.5 | 27.1 | 18 | 20.1 |  |  |  |  |  |  |  |  |  | 
CN1Cc2ccccc2/C=C\c2ccccc21 | > 100 | > 100 | > 100 | > 100 | > 100 | > 100 | > 100 | > 100 | > 100 | > 100 |  |  |  |  |  |  |  |  |  | 
CS(=O)(=O)c1ccc(Nc2nc(N[C@H]3CCCC[C@H]3N)nc3cc[nH]c(=O)c23)cc1 | 5.51 | 3.04 | 12.4 | > 100 | 28.3 | 7.09 | 90.1 | > 100 | 2.35 | 15.9 | 1.63 | 1.03 | 3.31 | 26.7 | 0.714 | 2.24 | 5.24 | 2.46 | 0.865 | 2.78
COc1ccc(/C=C/c2c(C(=O)/C=C/c3ccc(C(F)(F)F)cc3)c(C)nc3ccccc23)cc1 | 4 | 3.52 | 3.24 | 4.59 | 3.05 | 3.34 | 2.84 | 5.58 | 4.67 | 4.52 | 1.8 | 1.74 | 1.77 | 1.14 | 1.62 | 1.85 | 1.5 | 1.83 | 2.1 | 2.09
CS(=O)(=O)OCCCNCCCOS(C)(=O)=O | 4500 | 5480 | 3630 | 4680 | 6450 | 5170 | 3580 | 5620 | 4540 | 5310 |  |  |  |  |  |  |  |  |  | 
C#C[C@@]1(O)[C@@H](CO)O[C@@H](n2cc(I)c3c(N)ncnc32)[C@@H]1O | 4.01 | 2.26 | 1.43 | > 100 | > 50 | 2.55 | > 100 | > 38.1 | 0.706 | 27.8 | 0.259 | 0.44 | 0.309 | 0.137 | 0.0996 | 0.378 | 0.314 | 0.0756 | 0.0874 | 2.33
CS(=O)(=O)Nc1cccc(-c2ccc3ncnc(Nc4ccc(F)c(Cl)c4)c3c2)c1 | 4.54 | 4.44 | 2.27 | 3.86 | 4.78 | 4.2 | 6.06 | 5.89 | 3.35 | 5.07 | 1.81 | 1.49 | 0.118 | 1.47 | 1.55 | 1.83 | 0.113 | 1.94 | 1.6 | 2.05
CN(C)CCCn1c(=O)c2ccccc2c2cnc3[nH]ccc3c21 | 9.58 | 3.99 | 2.37 | 9.58 | 10.6 | 7.04 | 7.08 | 11.1 | 3.54 | 5.59 | 2.95 | 1.4 | 1.03 | 2 | 2.19 | 2.34 | 0.564 | 1.69 | 0.686 | 2.26
Cc1ccc([N+](=O)[O-])c2c(NCCNC(=O)c3cc(C(=O)NCCNc4ccnc5c(C)ccc([N+](=O)[O-])c45)n(C)n3)ccnc12 | > 100 | > 100 | > 100 | > 100 | > 100 | > 100 | > 100 | > 100 | > 100 | > 100 |  |  |  |  |  |  |  |  |  | 
O=C(Nc1ccccc1I(=O)=O)C1CCCCC1 | > 100 | > 100 | > 100 | > 100 | > 100 | > 100 | > 100 | > 100 | > 100 | > 100 | > 100 | > 100 | > 100 | > 100 | > 100 | > 100 | > 100 | > 100 | > 100 | > 100
C#Cc1cccc(Nc2nc(Cl)nc3cc(NC(=O)CCl)ccc23)c1 | 2.57 | 3.38 | 6.32 | 2.03 | 4.59 | 5.59 | 4.63 | 4.71 | 1.35 | 5.82 | 0.531 | 0.857 | 3.13 | 0.592 | 1.68 | 2.36 | 1.48 | 1.05 | 0.586 | 2.36
Nc1nc2c(C(=O)NCc3cccs3)nnn2c2cccc(Cl)c12 | > 100 | > 100 | > 100 | > 100 | > 100 | > 100 | > 100 | > 100 | > 100 | > 100 |  |  |  |  |  |  |  |  |  | 
CCOC(=O)C(Cc1ccc(N(CCCl)CCCl)cc1)NC(=O)C(Cc1ccccc1)NC=O (stereo not given) | 0.756 | 0.226 | 0.384 | 0.602 | 0.624 | 0.316 | 0.105 | 0.406 | 0.322 | 0.54 |  |  |  |  |  |  |  |  |  | 
